How the values were obtained:
B. cereus = experiment: Fluorescence per cell, stained bacteria (microtiter plate reader); format: cell-based, Bacillus cereus; settings: optimal dye concentration, corrected for cell number
Method: (§1) 1. Measured in a fluorescence microtiter plate reader with extraction and
(§2) emission filters at 485+/-10 and 530+/-12, respectively. Fluorescence dat
(§3) are corrected for cell number; but are not corrected for cell volume or
(§4) 2. Optimal dye concentrations determined as in Example 3.
(§5) 3. Suspension concentrations as used for Example 3.
(§6) A culture of E. coli is washed by centrifugation and resuspended in water to its original volume. Using Corning 96-well microtiter plates with flat bottoms, 150 μL volumes of suspension are loaded per well. A single well of sterile water is the well background standard. Using a Dynatech MR600 microplate reader equipped with a 410 nm filter, absorbance is determined for the initial volumes of suspension. The suspension is diluted seven times by serial ten-fold dilutions in water, 150 μL of suspension per well, and the absorbance measured for each dilution. Following the absorbance measurements, each dilution loaded into wells is further diluted 1:10 and plated in duplicate on nutrient growth agar. The colonies are counted and expressed as colony forming units per milliliter (cfu/mL). Using the turbidity of the dilution in the microtiter plate, the suspension is diluted to a density of about 1×10^9 cfu/mL.
(§7) The bacteria suspension, adjusted to a known density as described above, is diluted seven times by serial ten-fold dilutions in water; 150 μL of suspension per well. Three-fold serial dilutions of dye are used (30-0.04 μM); 50 μL of dye at 4× final concentration. Using Corning 96-well microtiter flat-bottom plates, a matrix is set up whereby the cell concentration decreases across the plate and the dye concentration decreases down the plate, final volume per well is 200 μL. The top row and first column are reserved for the control, sterile water. The plate is incubated at 37° C. for 30 minutes, then read in a Millipore Cytofluor™ 2350 96-well fluorescence microplate reader at a fixed excitation of 485+/-10 nm and each of three emission wavelengths, 530+/-12, 620+/-20, or 645+/-20 nm. The results determine the best dye range (30-1 μM) and the best cell concentrations (concentrated through first three ten-fold dilutions) for optimal dye loading. […] Using the four dye dilutions and the four bacterial dilutions, many bacteria and dyes can be assayed quickly. The data collected allow the determination of optimal dye and cell concentration required for maximal fluorescence intensity per cell.

M. luteus = experiment: as above; format: cell-based, Micrococcus luteus; settings: optimal dye concentration, corrected for cell number
Method: as §1, §2, §3, §4, §5, §6, §7

S. pyogenes = experiment: as above; format: cell-based, Streptococcus pyogenes; settings: optimal dye concentration, corrected for cell number
Method: as §1, §2, §3, §4, §5, §6, §7

S. aureus = experiment: as above; format: cell-based, Staphylococcus aureus
From the text: as §1, §2, §3, §4, §5
(§8) Factors such as degree of fluorescence enhancement with nucleic acid binding, self quenching, molar extinction coefficient, membrane permeability, intracellular partitioning, nucleic acid binding affinity, and quantum yield contribute to the overall fluorescence of nucleic acid stains in cells. Enhanced cell fluorescence obtained with Dye I is related to unexpected properties other than quantum yield alone. Quantum yield is determined as described above (foot note to Table 2). Normalized quantum yield is determined to illustrate the fold-change in quantum yield of Dye I compared with thiazole orange, a related cell-permeant dye. The normalized fluorescence values represent the quantum yield of each dye divided by the quantum yield of thiazole orange. Fluorescence per cell is also scaled to thiazole orange values for both E. coli and S. aureus to allow direct comparison between relative (normalized) quantum yield and relative (normalized) fluorescence/cell.
as §6, §7

E. coli = experiment: as above; format: cell-based, Escherichia coli
From the text: as §1, §2, §3, §4, §5, §8, §6, §7

S. oranienburg = experiment: as above; format: cell-based, Salmonella oranienburg; settings: optimal dye concentration, corrected for cell number
Method: as §1, §2, §3, §4, §5, §6, §7

K. pneumonia = experiment: as above; format: cell-based, Klebsiella pneumonia; settings: optimal dye concentration, corrected for cell number
Method: as §1, §2, §3, §4, §5, §6, §7

S. sonnei = experiment: as above; format: cell-based, Shigella sonnei; settings: optimal dye concentration, corrected for cell number
Method: as §1, §2, §3, §4, §5, §6, §7

P. aeruginosa = experiment: as above; format: cell-based, Pseudomonas aeruginosa; settings: optimal dye concentration, corrected for cell number
Method: as §1, §2, §3, §4, §5, §6, §7

nucleic acids = experiment: Excitation/emission maxima of dyes complexed with nucleic acids; format: physicochemical; parameters: key: wavelength in nm; settings: Table 2; dye complexed with nucleic acids
DNA = experiment: Quantum yield of dye on DNA versus fluorescein; format: physicochemical; settings: for QY (DNA): Table 2, Tris buffered saline pH 10, fluorescein assumed 0.92
[1] = test system: NIH/3T3 mouse fibroblast cell line; experiment: Live/dead staining of fibroblasts, fluorescence microscopy; format: cell-based
Method: NIH/3T3 mouse fibroblast cell line is obtained from American Type Culture Collection Co., Rockville, Md. The cells are maintained in a humidified atmosphere of 5% CO2 in Dulbecco's modified Eagle's medium (DMEM) supplemented with 10% calf serum, 50 μg/mL gentamicin, 300 μg/mL L-glutamine and 10 mM HEPES pH 7.4. Cells are subcultured every 3 days by trypsinization using 0.05% trypsin and 0.02% EDTA in a Ca- and Mg-free saline solution (Gibco BRL, Gaithersburg, Md.).
A 5 μM staining solution of the dye 61 is prepared by dilution of 25 μL of 2 mM stock solution into 10 mL DMEM. A 2 μM staining solution of ethidium homodimer-1 is prepared by dilution of 2 μL of 10 mM stock solution into 10 mL phosphate buffered saline (PBS).
The 3T3 cells are stained with the 5 μM solution of dye 61, and then incubated in the dark at room temperature for 30 minutes. The cells are then […] with the 2 μM ethidium homodimer-1 solution.
The 3T3 cells are then observed a long-pass fluorescein filter to view dye 61 fluorescence and a long-pass Texas Red® filter to view the emission of ethidium homodimer. A Nikon fluorescence microscope equipped with a 40× objective is used for inspection and photography.

[2] = test system: Peripheral blood lymphocytes; experiment: Live/dead staining of peripheral blood lymphocytes, fluorescence microscopy; format: cell-based, goat; settings: 1 μM dye 637, 1 μM calcein AM, 30 minutes each, either order
Method: Peripheral blood lymphocytes are isolated from whole goat blood using the standard ficoll density gradient protocol. The cells are incubated in saline buffer with coverslips coated with a cell adhesive. After attachment to the coverslip, the cells are incubated with either
a) 1 μM dye 637 for 30 minutes followed by washing, and subsequently incubating with 1 μM calcein AM for 30 minutes, or
b) as above but labeling first with calcein AM, and subsequently staining with dye 637.
After washing with saline, the stained cells are viewed through a long-pass fluorescein filter to view calcein fluorescence and a long-pass Texas Red® filter to view the emission of dye 637. A Nikon fluorescence microscope equipped with a 40× objective is used for inspection and photography.

calf thymus DNA = settings: Table 5; bound to excess calf thymus DNA (50 bp/dye); cited from earlier work

CCCCC1=CC(=Cc2sc3ccccc3[n+]2C)c2ccccc2N1c1ccccc1 [compound 61]
Fluorescence/Cell (ex 485/em 530) (B. cereus): 196 | Fluorescence/Cell (ex 485/em 530) (M. luteus): 49 | Fluorescence/Cell (ex 485/em 530) (S. pyogenes): 0.01 | Fluorescence/Cell (ex 485/em 530) (S. aureus; S. aureus, optimal dye concentration, corrected for cell number): 15 | Normalized Fluorescence/cell (ex 485 nm/em 530 nm), Staphylococcus aureus (S. aureus; scaled to thiazole orange): 4.7 | Fluorescence/Cell (ex 485/em 530) (E. coli; E. coli, optimal dye concentration, corrected for cell number): 10 | Normalized Fluorescence/cell (ex 485 nm/em 530 nm), Escherichia coli (E. coli; scaled to thiazole orange): 5 | Fluorescence/Cell (ex 485/em 530) (S. oranienburg): 10 | Fluorescence/Cell (ex 485/em 530) (K. pneumonia): 10 | Fluorescence/Cell (ex 485/em 530) (S. sonnei): 6 | Fluorescence/Cell (ex 485/em 530) (P. aeruginosa): 5 | EM max (nucleic acids): 527 | EX max (nucleic acids): 500 | Normalized QY (DNA; QY divided by QY of thiazole orange): 2.5 | QY (DNA) (DNA): 0.46 | QY (DNA; Table 7, on DNA, fluorescein reference): 0.46 | staining of live cells ([1]; 5 μM, 30 minutes, room temperature): live cells are stained fluorescent green

CCCCC1=CC(=CC=Cc2oc3ccccc3[n+]2C)c2ccccc2N1c1ccccc1 [compound 637]
EM max (nucleic acids): 622 | EX max (nucleic acids): 601 | QY (DNA) (DNA): 0.28 | staining of dead cells [2]: stained only with dye 637 and do not exhibit green fluorescence

Nc1ccc2c(c1)c(-c1ccccc1)[n+](CCCNCCNCCC[n+]1c(-c3ccccc3)c3cc(N)ccc3c3ccc(N)cc31)c1cc(N)ccc21 [Ethidium homodimer-1]
staining of dead cells ([1]; 2 μM): dead cells are stained fluorescent red | EM max (calf thymus DNA): 617 nm | EX max (calf thymus DNA): 528 nm

Reference: US5534416A, “Fluorescent viability assay using cyclic-substituted unsymmetrical cyanine dyes” (Molecular Probes, Inc., priority 1993, dated 1996)
